Measurements reported in ChEMBL document CHEMBL4665642, “Anticancer profile of newly synthesized BRAF inhibitors possess 5-(pyrimidin-4-yl)imidazo[2,1-b]thiazole scaffold” (Bioorg Med Chem, 2019).

Key:
[1] = system: SK-MEL-28; test: Cytotoxicity against human SK-MEL-28 cells assessed as reduction in cell viability by MTT assay; type: functional, cell-based
[2] = system: A-375; test: Cytotoxicity against human A-375 cells assessed as reduction in cell viability by MTT assay; type: functional, cell-based
[3] = system: T47D; test: Cytotoxicity against human T47D cells assessed as cell viability at 10 uM incubated for 48 hrs by sulforhodamine B assay relative to control; type: functional; conditions: read-out: Activity
[4] = system: MCF7; test: Cytotoxicity against human MCF7 cells assessed as cell viability at 10 uM incubated for 48 hrs by sulforhodamine B assay relative to control; type: functional; conditions: read-out: Activity
[5] = system: UO-31; test: Cytotoxicity against human UO-31 cells assessed as cell viability at 10 uM incubated for 48 hrs by sulforhodamine B assay relative to control; type: functional; conditions: read-out: Activity
[6] = system: RXF 393; test: Cytotoxicity against human RXF 393 cells assessed as cell viability at 10 uM incubated for 48 hrs by sulforhodamine B assay relative to control; type: functional; conditions: read-out: Activity
[7] = system: CAKI-1; test: Cytotoxicity against human CAKI-1 cells assessed as cell viability at 10 uM incubated for 48 hrs by sulforhodamine B assay relative to control; type: functional; conditions: read-out: Activity
[8] = system: SK-OV-3; test: Cytotoxicity against human SK-OV-3 cells assessed as cell viability at 10 uM incubated for 48 hrs by sulforhodamine B assay relative to control; type: functional; conditions: read-out: Activity
[9] = system: UACC-257; test: Cytotoxicity against human UACC-257 cells assessed as cell viability at 10 uM incubated for 48 hrs by sulforhodamine B assay relative to control; type: functional; conditions: read-out: Activity
[10] = system: SK-MEL-5; test: Cytotoxicity against human SK-MEL-5 cells assessed as cell viability at 10 uM incubated for 48 hrs by sulforhodamine B assay relative to control; type: functional; conditions: read-out: Activity
[11] = system: SK-MEL-2; test: Cytotoxicity against human SK-MEL-2 cells assessed as cell viability at 10 uM incubated for 48 hrs by sulforhodamine B assay relative to control; type: functional; conditions: read-out: Activity
[12] = system: Malme-3M; test: Cytotoxicity against human Malme-3M cells assessed as cell viability at 10 uM incubated for 48 hrs by sulforhodamine B assay relative to control; type: functional; conditions: read-out: Activity
[13] = system: NCI-H322M; test: Cytotoxicity against human NCI-H322M cells assessed as cell viability at 10 uM incubated for 48 hrs by sulforhodamine B assay relative to control; type: functional; conditions: read-out: Activity
[14] = system: HCC 2998; test: Cytotoxicity against human HCC 2998 cells assessed as cell viability at 10 uM incubated for 48 hrs by sulforhodamine B assay relative to control; type: functional; conditions: read-out: Activity
[15] = system: HCT-116; test: Cytotoxicity against human HCT-116 cells assessed as cell viability at 10 uM incubated for 48 hrs by sulforhodamine B assay relative to control; type: functional; conditions: read-out: Activity
[16] = system: HCT-15; test: Cytotoxicity against human HCT-15 cells assessed as cell viability at 10 uM incubated for 48 hrs by sulforhodamine B assay relative to control; type: functional; conditions: read-out: Activity
[17] = system: HCT-29; test: Cytotoxicity against human […] cells assessed as cell viability at 10 uM incubated for 48 hrs by sulforhodamine B assay relative to control; type: functional; conditions: read-out: Activity
[18] = system: SF-295; test: Cytotoxicity against human SF-295 cells assessed as cell viability at 10 uM incubated for 48 hrs by sulforhodamine B assay relative to control; type: functional; conditions: read-out: Activity
[19] = system: SF-539; test: Cytotoxicity against human SF-539 cells assessed as cell viability at 10 uM incubated for 48 hrs by sulforhodamine B assay relative to control; type: functional; conditions: read-out: Activity
[20] = system: LOX IMVI; test: Cytotoxicity against human LOX IMVI cells assessed as cell viability at 10 uM incubated for 48 hrs by sulforhodamine B assay relative to control; type: functional; conditions: read-out: Activity
[21] = molecular target: RAF proto-oncogene serine/threonine-protein kinase (Homo sapiens, UniProt P04049); test: Inhibition of human CRAF using MEK1 as substrate by [gamma-33P]-ATP assay
RAF proto-oncogene serine/threonine-protein kinase, sequence (P04049 whole entry): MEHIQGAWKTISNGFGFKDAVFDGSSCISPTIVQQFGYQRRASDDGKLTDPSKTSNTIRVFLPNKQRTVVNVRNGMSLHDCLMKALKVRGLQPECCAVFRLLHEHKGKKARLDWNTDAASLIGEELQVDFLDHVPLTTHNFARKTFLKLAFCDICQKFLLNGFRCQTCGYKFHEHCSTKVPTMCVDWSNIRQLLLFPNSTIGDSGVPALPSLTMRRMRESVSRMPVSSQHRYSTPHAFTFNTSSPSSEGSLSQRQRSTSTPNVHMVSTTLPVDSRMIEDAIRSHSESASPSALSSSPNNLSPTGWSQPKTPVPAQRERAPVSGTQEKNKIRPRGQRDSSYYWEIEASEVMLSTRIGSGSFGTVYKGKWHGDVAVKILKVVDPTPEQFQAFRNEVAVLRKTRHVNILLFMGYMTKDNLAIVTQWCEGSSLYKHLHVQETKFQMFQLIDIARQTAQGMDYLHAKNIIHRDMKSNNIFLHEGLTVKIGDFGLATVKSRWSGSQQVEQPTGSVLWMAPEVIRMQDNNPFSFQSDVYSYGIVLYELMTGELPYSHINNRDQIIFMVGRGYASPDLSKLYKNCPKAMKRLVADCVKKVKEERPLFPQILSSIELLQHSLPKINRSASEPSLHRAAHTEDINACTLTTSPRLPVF

[22] = molecular target: Serine/threonine-protein kinase B-raf (Homo sapiens, UniProt P15056, V600E); test: Inhibition of human BRAF V600E mutant using MEK1 as substrate by […] assay
Serine/threonine-protein kinase B-raf (Homo sapiens, UniProt P15056, V600E), sequence (P15056 2-766 V600E limits assumed): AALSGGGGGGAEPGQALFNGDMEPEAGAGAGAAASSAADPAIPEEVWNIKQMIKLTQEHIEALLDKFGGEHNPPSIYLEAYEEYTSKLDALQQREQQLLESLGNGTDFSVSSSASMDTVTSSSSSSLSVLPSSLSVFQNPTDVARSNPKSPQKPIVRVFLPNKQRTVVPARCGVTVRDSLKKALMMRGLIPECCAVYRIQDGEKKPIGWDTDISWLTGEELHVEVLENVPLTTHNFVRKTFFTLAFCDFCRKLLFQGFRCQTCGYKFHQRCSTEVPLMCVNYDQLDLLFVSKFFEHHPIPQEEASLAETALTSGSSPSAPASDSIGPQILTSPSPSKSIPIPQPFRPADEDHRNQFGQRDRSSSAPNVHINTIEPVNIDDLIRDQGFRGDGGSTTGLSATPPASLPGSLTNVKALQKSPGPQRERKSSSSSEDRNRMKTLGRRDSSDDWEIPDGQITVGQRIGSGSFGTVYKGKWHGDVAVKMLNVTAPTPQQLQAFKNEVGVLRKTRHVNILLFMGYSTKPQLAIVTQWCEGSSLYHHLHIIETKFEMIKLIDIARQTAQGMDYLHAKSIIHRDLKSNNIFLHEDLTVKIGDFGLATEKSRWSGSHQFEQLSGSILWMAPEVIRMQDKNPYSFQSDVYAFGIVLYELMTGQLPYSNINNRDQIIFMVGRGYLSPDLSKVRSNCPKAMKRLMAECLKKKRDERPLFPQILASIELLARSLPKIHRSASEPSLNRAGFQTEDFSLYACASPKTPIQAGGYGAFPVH

[23] = molecular target: Serine/threonine-protein kinase B-raf (Homo sapiens, UniProt P15056); test: Inhibition of human BRAF using MEK1 as substrate by […] assay
Serine/threonine-protein kinase B-raf (Homo sapiens, UniProt P15056), sequence (P15056 whole entry): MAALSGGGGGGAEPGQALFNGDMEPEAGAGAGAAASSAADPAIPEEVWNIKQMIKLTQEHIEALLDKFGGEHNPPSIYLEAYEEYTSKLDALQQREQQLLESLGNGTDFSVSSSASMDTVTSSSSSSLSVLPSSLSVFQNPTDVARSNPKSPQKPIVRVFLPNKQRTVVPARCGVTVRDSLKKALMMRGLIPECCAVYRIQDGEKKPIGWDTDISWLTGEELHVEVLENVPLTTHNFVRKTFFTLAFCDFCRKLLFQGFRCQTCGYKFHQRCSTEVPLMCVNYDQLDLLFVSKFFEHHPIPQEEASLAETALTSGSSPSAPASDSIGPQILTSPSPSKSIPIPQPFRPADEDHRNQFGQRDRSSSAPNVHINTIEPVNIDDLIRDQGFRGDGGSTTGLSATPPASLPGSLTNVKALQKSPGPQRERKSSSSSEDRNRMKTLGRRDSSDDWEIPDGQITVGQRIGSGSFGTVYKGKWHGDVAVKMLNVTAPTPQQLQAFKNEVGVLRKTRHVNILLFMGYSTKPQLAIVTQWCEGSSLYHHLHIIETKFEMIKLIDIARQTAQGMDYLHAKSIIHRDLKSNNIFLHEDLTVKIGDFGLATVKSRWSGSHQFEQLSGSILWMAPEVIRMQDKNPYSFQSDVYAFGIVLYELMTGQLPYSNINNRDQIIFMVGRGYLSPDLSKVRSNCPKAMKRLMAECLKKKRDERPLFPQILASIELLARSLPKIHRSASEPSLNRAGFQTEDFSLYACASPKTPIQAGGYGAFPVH

Row | SMILES | IC50 [1] [µM] | IC50 [2] [µM] | viability at 10 µM [3] [%] | viability at 10 µM [4] [%] | viability at 10 µM [5] [%] | viability at 10 µM [6] [%] | viability at 10 µM [7] [%] | viability at 10 µM [8] [%] | viability at 10 µM [9] [%] | viability at 10 µM [10] [%] | viability at 10 µM [11] [%] | viability at 10 µM [12] [%] | viability at 10 µM [13] [%] | viability at 10 µM [14] [%] | viability at 10 µM [15] [%] | viability at 10 µM [16] [%] | viability at 10 µM [17] [%] | viability at 10 µM [18] [%] | viability at 10 µM [19] [%] | viability at 10 µM [20] [%] | also measured
1 | O=S(=O)(NCCNc1nccc(-c2c(-c3cccc(F)c3)nc3sccn23)n1)c1ccc(Cl)cc1 | 18.6 | 18.6 | 43.2 | 24.7 | 23.9 | 69 | 41.1 | 94.9 | 88.7 | 36.5 | 79.8 | 82.7 | 65.5 | 83.4 | 34 | 31.9 | 36 | 63.7 | 82.5 | 43.6 | –
2 | O=C(NCCNc1nccc(-c2c(-c3cccc(F)c3)nc3sccn23)n1)c1ccc(Cl)cc1 | 8.16 | 2.57 | 49 | 27.7 | 28.1 | 72.9 | 41.5 | 80.9 | 76 | 33.6 | 62.5 | 34.9 | 66.3 | 90.1 | 33 | 40.1 | 35.2 | 73.8 | 90 | 43.4 | IC50 [21]: 0.12 µM; IC50 [22]: 0.0272 µM; IC50 [23]: 0.105 µM
3 | O=S(=O)(NCCNc1nccc(-c2c(-c3cccc(F)c3)nc3sccn23)n1)c1ccccc1 | 19 | 11 | 18.8 | 21.7 | 15.4 | 64.1 | 39.1 | 57.1 | 65.3 | 19.1 | 51.8 | 68.5 | 51.5 | 66.3 | 22.7 | 25.8 | 23.2 | 47.4 | 65.5 | 36.3 | –
4 | O=S(=O)(NCCNc1nccc(-c2c(-c3cccc(F)c3)nc3sccn23)n1)c1cccc(F)c1 | 18.3 | 14.9 | 49.1 | 30.8 | 30.2 | 80.2 | 44.6 | 95.8 | 104 | 53.5 | 81.8 | 108 | 77.1 | 95.5 | 42.8 | 38.9 | 43.9 | 80.6 | 95.6 | 51.2 | –
5 | O=C(NCCNc1nccc(-c2c(-c3cccc(F)c3)nc3sccn23)n1)c1ccc(C(F)(F)F)cc1 | 9.26 | 8.71 | 43 | 46.3 | 34.5 | 81.9 | 55 | 70.2 | 96.8 | 56.6 | 69 | 55.7 | 81.8 | 100 | 50.6 | 53.1 | 50.2 | 74.4 | 95.7 | 64.8 | –
6 | O=S(=O)(NCCNc1nccc(-c2c(-c3cccc(F)c3)nc3sccn23)n1)c1ccc(Br)cc1 | 13.5 | 13.5 | 30.5 | 23.5 | 21.2 | 72.7 | 35.1 | 77.3 | 82 | 31.5 | 71.7 | 71.1 | 61 | 79.5 | 33.9 | 29.2 | 28.2 | 58.7 | 76.4 | 38.5 | –
7 | O=S(=O)(NCCNc1nccc(-c2c(-c3cccc(F)c3)nc3sccn23)n1)c1ccc(C(F)(F)F)cc1 | 8.45 | 7.44 | 62.5 | 59.3 | 51.7 | 92.1 | 70.6 | 71.8 | 109 | 84 | 98.8 | 115 | 96.5 | 111 | 67.8 | 72.6 | 62.8 | 107 | 103 | 88.9 | IC50 [21]: 0.0884 µM; IC50 [22]: 0.0223 µM; IC50 [23]: 0.0852 µM
8 | O=S(=O)(NCCNc1nccc(-c2c(-c3cccc(F)c3)nc3sccn23)n1)c1ccc(F)cc1 | 9.45 | 9.45 | 40.4 | 22 | 23.2 | 68.9 | 41.3 | 79.9 | 79.1 | 35.4 | 67.2 | 81.1 | 64 | 80.8 | 40 | 32.2 | 28.7 | 67.5 | 83.2 | 42.8 | –
9 | O=S(=O)(NCCCNc1nccc(-c2c(-c3cccc(F)c3)nc3sccn23)n1)c1cccc(F)c1 | 8.55 | 13.7 | -2.25 | 33.7 | 28.2 | 78.8 | 41.5 | 66 | 50.8 | 13.5 | 47.6 | 63.2 | 79.9 | 99.3 | 48 | 22.6 | 30.6 | 51.1 | 86.4 | 39 | –
10 | O=S(=O)(NCCCNc1nccc(-c2c(-c3cccc(F)c3)nc3sccn23)n1)c1ccc(F)cc1 | > 20 | 14.5 | 18.6 | 70.1 | 38.8 | 85 | 57.8 | 81.6 | 112 | 47.3 | 76.6 | 102 | 100 | 116 | 59.4 | 44.5 | 46.2 | 92.7 | 115 | 56 | –
11 | O=C(NCCCNc1nccc(-c2c(-c3cccc(F)c3)nc3sccn23)n1)c1ccc(F)cc1 | > 20 | 14.9 | 50.6 | 71.9 | 36.9 | 77.3 | 73 | 66.3 | 116 | 67.8 | 95 | 140 | 96.3 | 112 | 62.5 | 65.2 | 60.8 | 97.2 | 99.4 | 79.5 | –
